Data on five compounds can be found in patent US9066949B2, “Compositions and methods for the treatment of catatonia” (priority 2011, dated 2015).

Data set [1] relates to clinical effects of ketamine, an NMDA receptor antagonist. Particulars: in vivo; cited from earlier work.
For another data set, the system named is catatonic features. Description: Bush-Francis Catatonia Rating Scale (BFCRS) assessment of patients before and after treatment. Format: in vivo, human. From the text: This assessment tool, in conjunction with clinical observation, can be used to identify the severity of catatonia and track improvements with medication adjustments. Studies discussed herein focused on subjects in both secure and nonsecure residential settings.

For data set [2] the following is noted: on average, subjects with schizophrenic disorders; cited from earlier work.

Each structure is given as a SMILES string.

On to `Cc1nc2n(c(=O)c1CCN1CCC(c3noc4cc(F)ccc34)CC1)CCCC2` [risperidone], for which, in data set [1], the “effect on the clinical effects of ketamine” value (“effect … of ketamine” for short) is recorded as “do not impact the effects of ketamine”.
`Nc1nnc(-c2cccc(Cl)c2Cl)c(N)n1` [lamotrigine]: the treatment response entry with catatonic features (10 out of 14 schizophrenic patients with catatonic features, non-secure settings, antipsychotic, lamotrigine, in some cases a benzodiazepine) is reported as “marked treatment response”. The “effect of lamotrigine alone on catatonic features” value with catatonic features (administration of lamotrigine alone) is given as “reduces catatonic features”. In addition, the “effect on catatonic features at lowest dose” value with catatonic features (as little as 25 mg per day) was “meaningful reduction in catatonic features”. In the data set on catatonic features (in some instances), the “effect on catatonic features as the amount of lamotrigine was increased” value is on record as “complete remission of catatonic features”. In addition, the subjects who responded with catatonic features (of 20 confirmed cases of catatonia in secure residential settings, clozapine monotherapy with subsequent augmentation with lamotrigine) was 11. The “BFCRS score after treatment” value with catatonic features (one patient, reduced from 14, olanzapine plan later augmented with lamotrigine) is on record as 0; with catatonic features (one subject, secure residential setting, dropped from 17, 3 weeks after starting the combination therapy), 11. Further, the “follow up BFCRS score” value with catatonic features (one subject, non-secure setting, original BFCRS score 31, poor responder to clozapine and lorazepam, after augmentation with lamotrigine) came to 0. Moreover, the “response at full dosage” value in the data set on catatonic features (titrated to a full dosage of 200 mg twice per day, paired with an antipsychotic) was “maximal responses”. In addition, the “effect … of ketamine” value in data set [1] is listed as “reverse the clinical effects of ketamine”.
For the compound `O=C(CCCN1CCC(O)(c2ccc(Cl)cc2)CC1)c1ccc(F)cc1` [haloperidol], the “effect … of ketamine” value in data set [1] is recorded as “do not impact the effects of ketamine”.
For `CN1CCN(C2=Nc3cc(Cl)ccc3Nc3ccccc32)CC1` [clozapine, 8-chloro-11-(4-methylpiperazin-1-yl)-5H-dibenzo[b,e][1,4]diazepine], the “blood levels needed to achieve greater clinical efficacy” value in data set [2] was no less than 400 ng/dL. Moreover, the “effect … of ketamine” value in data set [1] is on record as “reverse the clinical effects of ketamine”.
For `Cc1cc2c(s1)Nc1ccccc1N=C2N1CCN(C)CC1` [olanzapine, 2-methyl-4-(4-methyl-1-piperazinyl)-10H-thieno[2,3-b][1,5]benzodiazepine], the “effect … of ketamine” value in data set [1] is listed as “reverse the clinical effects of ketamine”.
